ChEMBL document CHEMBL4400564, “Structure-activity relationship studies of Bz amide-containing α-GalCer derivatives as natural killer T cell modulators” (Bioorg Med Chem Lett, 2019)
Calls of active or inactive are those of the source. No cut-off for these calls is given here.

Experiments:
[1] = target: T1, Antigen-presenting glycoprotein CD1d1 (Mus musculus) (UniProt P11609); assay: Binding affinity to Ig-tagged mouse CD1d assessed as increase in IL-2 production in NKT hybridoma cells exposed to 24 hrs pre-treated compound/CD1d mixture and measured after 48 hrs by ELISA based APC free assay; assay type: cell-based
T1 sequence (whole entry): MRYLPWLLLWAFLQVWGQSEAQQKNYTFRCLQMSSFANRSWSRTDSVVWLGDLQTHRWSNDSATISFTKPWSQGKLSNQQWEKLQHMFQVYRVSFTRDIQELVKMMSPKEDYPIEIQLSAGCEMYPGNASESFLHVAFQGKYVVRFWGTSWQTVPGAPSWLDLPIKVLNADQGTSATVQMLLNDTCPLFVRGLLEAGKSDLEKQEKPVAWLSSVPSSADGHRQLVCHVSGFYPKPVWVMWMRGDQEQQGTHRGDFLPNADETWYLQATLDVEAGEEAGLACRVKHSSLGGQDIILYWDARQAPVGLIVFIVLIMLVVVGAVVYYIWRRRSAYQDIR

Splenocyte [2] = assay: Induction of IL-4 production in C57BL/6J mouse splenocyte at 1 to 100 nM after 48 hrs by ELISA relative to alpha-GalCer; assay type: functional, cell-based
Splenocyte [3] = assay: Reduction of IFN-gamma production in C57BL/6J mouse splenocyte at 1 to 100 nM after 48 hrs by ELISA relative to alpha-GalCer; assay type: functional, cell-based

Row | Structure (SMILES) | Activity [1] | Activity (Splenocyte [2]) | Activity (Splenocyte [3])
1 | CCCCCCCCCCCCCC[C@@H](O)[C@@H](O)[C@H](CO[C@H]1O[C@H](CO)[C@H](O)[C@H](O)[C@H]1O)NC(=O)CCCCCCCCCCCNC(=O)C1CCCCC1 | Dose-dependent effect | Active | Active
2 | CCCCCCCCCCCCCC[C@@H](O)[C@@H](O)[C@H](CO[C@H]1O[C@H](CO)[C@H](O)[C@H](O)[C@H]1O)NC(=O)CCCCCCCCCCCNC(=O)C(C)(C)C | Dose-dependent effect | Active | Active
3 | CCCCCCCCCCCCCC[C@@H](O)[C@@H](O)[C@H](CO[C@H]1O[C@H](CO)[C@H](O)[C@H](O)[C@H]1O)NC(=O)CCCCCCCCCCCNC(=O)c1ccc(OC)cc1 | Dose-dependent effect | Active | Active
4 | CCCCCCCCCCCCCC[C@@H](O)[C@@H](O)[C@H](CO[C@H]1O[C@H](CO)[C@H](O)[C@H](O)[C@H]1O)NC(=O)CCCCCCCCCCCNC(=O)C1CCNCC1 | Dose-dependent effect | Active | Active
5 | CCCCCCCCCCCCCC[C@@H](O)[C@@H](O)[C@H](CO[C@H]1O[C@H](CO)[C@H](O)[C@H](O)[C@H]1O)NC(=O)CCCCCCCCCCCNC(=O)c1cccc(OC)c1 | Dose-dependent effect | Active | Active

Second part, led by results:

Row | Activity [1] | Structure (SMILES) | Activity (Splenocyte [2]) | Activity (Splenocyte [3])
6 | Dose-dependent effect | CCCCCCCCCCCCCC[C@@H](O)[C@@H](O)[C@H](CO[C@H]1O[C@H](CO)[C@H](O)[C@H](O)[C@H]1O)NC(=O)CCCCCCCCCCCNC(=O)c1ccccc1 | Active | Active
7 | Dose-dependent effect | CCCCCCCCCCCCCC[C@@H](O)[C@@H](O)[C@H](CO[C@H]1O[C@H](CO)[C@H](O)[C@H](O)[C@H]1O)NC(=O)CCCCCCCCCCCNC(=O)c1cccc(F)c1 | Active | Active
8 | Dose-dependent effect | CCCCCCCCCCCCCC[C@@H](O)[C@@H](O)[C@H](CO[C@H]1O[C@H](CO)[C@H](O)[C@H](O)[C@H]1O)NC(=O)CCCCCCCCCCCNC(=O)c1ccccc1OC | Active | Active
9 | Dose-dependent effect | CCCCCCCCCCCCCC[C@@H](O)[C@@H](O)[C@H](CO[C@H]1O[C@H](CO)[C@H](O)[C@H](O)[C@H]1O)NC(=O)CCCCCCCCCCCNC(=O)c1ccccc1F | Active | Active
10 | Dose-dependent effect | CCCCCCCCCCCCCC[C@@H](O)[C@@H](O)[C@H](CO[C@H]1O[C@H](CO)[C@H](O)[C@H](O)[C@H]1O)NC(=O)CCCCCCCCCCCNC(=O)c1ccc(F)cc1 | Active | Active
